According to PMC10014103, “The immunometabolite itaconate stimulates OXGR1 to promote mucociliary clearance during the pulmonary innate immune response” (The Journal of Clinical Investigation, 2023):
“And” between values parts separate entries of the source, which are not always exact repeats. Equal values may be shown once.

Tests used:
human OXGR1 [1] = target: T1, human OXGR1 (Homo sapiens, UniProt Q96P68); experiment: cAMP GloSensor assay in HEK293 cells expressing human OXGR1; assay type: cell-based; settings: 0.5 mM ligand, Gs/Gi coupling
Experimental: For the GloSensor assay, HEK293 cells stably expressing pGloSensor-22F were transfected with GPCR plasmids. Thirty-six hours after transfection, cells were trypsinized and resuspended at a density of 2.5 × 10^5 cells/mL in HBSS supplemented with 10 mM HEPES, 0.5% BSA, 2% GloSensor cAMP Reagent stock solution (Promega), and 300 μM IBMX, and loaded with GloSensor substrates for 2 hours. Cell suspensions (100 μL) were aliquoted onto 96-well plates. Cells were treated with 0.5 mM of the indicated ligand or 1 μM forskolin, and luminance was recorded.

human OXGR1 [2] = target: T1, human OXGR1; experiment: Fluo-4 assay in HEK293 cells expressing human OXGR1; assay type: cell-based; settings: Fluo-4 assay, hOXGR1 in HEK293 cells; read-out: EC50
Experimental: For the Fluo-4AM assay, OXGR1-expressing cells were loaded with 2 μM Fluo-4AM for 30 minutes at 37°C. Excess Fluo-4AM was then washed off with HBSS buffer. After incubation at 37°C for another 10 minutes, cells were transferred onto a 96-well plate.

OXGR1 [3] = experiment: ERK phosphorylation by Western blotting in OXGR1-expressing HEK293 cells; assay type: cell-based, human; settings: 5 μM to 1 mM for 15 minutes
Experimental: HEK293 cells were transiently transfected with plasmids expressing empty vector or FLAG-tagged OXGR1 using PolyJet reagent. The medium was switched to serum-free DMEM 36 hours after transfection. After serum starvation for another 12 hours, cells were stimulated with the indicated ligand and lysed in Laemmli buffer. Protein lysate was separated on standard SDS-PAGE, transferred onto a PVDF membrane, and then subjected to immunoblotting with the following antibodies: anti–p-ERK (catalog 4370, Cell Signaling Technology); anti-Flag (catalog 14793, Cell Signaling Technology); anti-IRG1/anti-ACOD1 (catalog 19857, Cell Signaling Technology); anti-Myc (catalog 2278, Cell Signaling Technology); anti-ERK (catalog 67170-1-Ig, Proteintech); and anti-actin (catalog A00702, GenScript).

human OXGR1 [4] = target: T1, human OXGR1; experiment: Stress fiber assay in NIH3T3 cells stably expressing OXGR1; assay type: cell-based, mouse; settings: 500 μM ITA, 30 minutes, G12/13 coupling
Experimental: For the stress fiber assay, NIH3T3 cells stably expressing OXGR1 were treated with 500 μM ITA or 10 μM lysophosphatidic acid (LPA) for 30 minutes. Cells were fixed with 4% paraformaldehyde and permeabilized with 0.1% Triton X-100. Stress fibers were stained with FITC-phalloidin (Invitrogen, Thermo Fisher Scientific). Nuclei were stained with DAPI. Immunofluorescence images were captured with a Leica SP8 laser-scanning confocal microscope.

[5] = tested on: primary human respiratory epithelial cells (ALI culture); experiment: Bead movement in ALI culture of primary human bronchial epithelial cells; assay type: cell-based; settings: 500 μM ITA, OXGR1-dependent
Experimental: . When they reached full confluence, the cells were differentiated by exposure to air and cultured in a serum-free medium for 20 days. ALI culturing of primary human bronchial epithelium was performed following the manufacturer’s manual ([…] Technologies). Briefly, cells were maintained in PneumaCult-Ex Plus medium on a Transwell insert. Medium on the lateral side was switched to PneumaCult-ALI medium. The apical side of the Transwell membrane was then carefully washed with prewarmed Dulbecco’s PBS (DPBS). Cells were differentiated by exposure to air for 3 weeks. The medium was changed every 2 days.
For the measurement of bead movement in ALI culture, the apical side of the ALI culture inserts was washed with PBS 5 times to fully remove mucus. The inserts were transferred to HBSS buffer supplemented with 30 mM HEPES and the indicated ligand, and 20 μL bath buffer containing red fluorescent beads was added to the apical side. After 15 minutes of equilibration, bead movement was monitored with the BioTek Cytation 5 cell imaging system.

[6] = tested on: respiratory epithelium mucin secretion; experiment: Intranasal administration, mucin-containing cells in nasal cavity (Alcian blue/PAS); assay type: in vivo, mouse; settings: intranasal 500 μM ITA, 1 hour
Excerpt: Harvested mouse skulls were fixed in 4% paraformaldehyde overnight and decalcified with 12% EDTA for 2 weeks. After full decalcification, the snoots were trimmed in between the incisor teeth and the first molar teeth. Trimmed tissues were embedded with paraffin, and sections were taken from the most proximal aspect of the nasal cavity. Mucin-containing epithelial cells distributed in the basement membrane of the nasal cavity floor and septum were visualized by Alcian blue/PAS staining and manually counted.

mouse OXGR1 = target: T2, mouse OXGR1 (Mus musculus, UniProt Q6IYF8); experiment: Aequorin assay (calcium mobilization) in HEK293 cells overexpressing mouse OXGR1; assay type: cell-based; settings: aequorin assay, mOXGR1 in HEK293 cells; read-out: EC50
T2 construct: expressed in transfected cells; host or cells: HEK293
T2 sequence (Q6IYF8 whole entry): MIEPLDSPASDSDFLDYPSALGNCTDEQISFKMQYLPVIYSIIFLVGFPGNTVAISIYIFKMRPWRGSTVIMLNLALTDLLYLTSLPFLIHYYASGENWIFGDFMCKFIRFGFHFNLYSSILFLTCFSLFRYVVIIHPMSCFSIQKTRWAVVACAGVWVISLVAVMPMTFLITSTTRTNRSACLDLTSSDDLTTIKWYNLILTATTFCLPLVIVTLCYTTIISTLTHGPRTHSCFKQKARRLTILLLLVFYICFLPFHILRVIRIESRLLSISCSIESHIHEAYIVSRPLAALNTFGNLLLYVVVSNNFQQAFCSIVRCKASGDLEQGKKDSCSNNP
Experimental: Thirty-six hours after transfection, cells were maintained in serum-free medium for 12 hours and then loaded with 5 μM coelenterazine for 3 hours. Cells were trypsinized and resuspended at a density of 5 × 10^5 cells/mL in HBSS supplemented with 10 mM HEPES and 0.5% BSA. Cell suspensions of 100 μL were aliquoted into 96-well plates.

mouse trachea = experiment: Ex vivo trachea culture, cilia beating-derived fluorescent bead movement; settings: 500 μM ITA or 100 μM ATP
Experimental: Tracheas were harvested from mice and cut longitudinally through the middle of the trachealis muscle to expose the lumen of the trachea. Tracheas were then transferred into HBSS buffer and equilibrated for 30 minutes. With the lumen facing down, trachea tissues were transferred into 2 mL HBSS buffer supplemented with 0.5% methylcellulose, red fluorescent beads, 30 mM HEPES, and the indicated ligand. Bead flow was monitored with the BioTek Cytation 5 cell imaging system. Twenty individual beads were tracked from different fields of view in each condition, and the speed of each bead was calculated by […].

FLAG-tagged OXGR1 [7] = target: T3, FLAG-tagged OXGR1 (Homo sapiens, UniProt Q96P68); experiment: Endocytosis assay of FLAG-tagged OXGR1 in HEK293 cells; assay type: cell-based; settings: WT OXGR1, within 10 minutes of ligand treatment
T3 construct: expressed in transfected cells
Experimental: (§1) For endocytosis assays, HEK293 cells stably expressing FLAG-OXGR1 were chilled on ice in DMEM medium supplemented with 30 mM HEPES for 10 minutes. […] Unbound antibody was then washed off with prechilled HBSS buffer. […] After ligand stimulation, cells were fixed and permeabilized. Subcellular localization of FLAG-tagged OXGR1 was detected using FITC-donkey anti-rabbit antibody (Invitrogen, Thermo Fisher Scientific), and nuclei were stained with DAPI (MilliporeSigma). Immunofluorescence images were captured with a Leica SP8 laser-scanning confocal microscope.

FLAG-tagged OXGR1 [8] = experiment: as above; assay type: cell-based, human; settings: after ITA treatment
Experimental: as §1

OXGR1 [9] = experiment: Cellular thermal shift assay of OXGR1; assay type: binding, human; settings: 1 mM ITA, 37 to 62 °C
Experimental: Supplementary Figure 4. ITA increases the thermostability of OXGR1
Cells expressing Myc-tagged BirA along with AviTag-tagged wildtype (A) or R110A mutant (B) OXGR1 were treated with 1 μM biotin for 16 hours in serum-free medium to biotinylate OXGR1 in native conformation. Cells were treated with or without 1mM ITA, lysed, and incubated under different temperatures (from 37 to 62℃) for 3 minutes.
Denatured protein was removed by centrifuge. Biotinylated OXGR1 was determined by Western blot and quantified. […]

C=C(CC(=O)O)C(=O)O [ITA, itaconate]
intracellular cAMP (human OXGR1 [1]): did not affect intracellular cAMP | EC50 (human OXGR1 [2]): 221 ± 107 µM | phosphorylation of ERK (OXGR1 [3]): dose-dependently induced | stress fiber formation (human OXGR1 [4]): failed to affect stress fiber formation | movement of beads [5]: accelerated the movement of beads | mucin-containing cells in respiratory epithelium, Oxgr1+/+ mice [6]: decrease of mucin-containing cells | mucin-containing cells in respiratory epithelium, Oxgr1–/– mice [6]: did not observe an effect | EC50 (mouse OXGR1): 416 µM and ~400 µM | movement of beads, trachea from Oxgr1+/+ mice (mouse trachea): significantly increased the movement of beads | endocytosis of OXGR1 (FLAG-tagged OXGR1 [7]): rapid endocytosis of OXGR1 was triggered | endocytosis of R110A or R261A mutant OXGR1 (FLAG-tagged OXGR1 [8]): did not undergo endocytosis | thermal stability of WT OXGR1 (OXGR1 [9]): increased the thermal stability
